Measurements: patent publication US6833456B2, “Indolyl-urea derivatives of thienopyridines useful as antiangiogenic agents, and methods for their use” (Agouron Pharmaceuticals, Inc., priority 2002, dated 2004)
“And” between values parts separate entries of the source, which are not always exact repeats. Equal entries are not always repeated.

Tests used:
[1] = system: human umbilical vein endothelial cells (HUVEC); assay: HUVEC+VEGF proliferation assay; format: cell-based; conditions: Homo sapiens, HUVEC, 72 h, VEGF 6 ng/mL, MTT
Outline: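 Proliferation driven by VEGF (final 6 ng/mL) was quantified by MTT reduction (A595) 72 h after stimulation. Passage 3-4 HUVEC were starved for 24 h in 1% FBS F12K and given test agent 1 h before VEGF, with DMSO at 0.1% final.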

PDGFRβ = target: T1, PDGFRβ (Homo sapiens, UniProt P09619); assay: PAE-PDGFRβ phosphorylation in PAE-PDGFRB cells assay; format: cell-based; conditions: PAE cells overexpressing human PDGFRβ, PDGF-BB stimulated; read-out: PAE PDGFR autophos IC50
T1 construct: expressed in transfected cells; host or cells: porcine aorta endothelial (PAE) cells
Outline: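 PAE cells overexpressing human PDGFRβ, serum-starved 16 h (0.1% FBS), compound 1 h at 37° C (0.5% DMSO), then 1 μg/mL PDGF-BB with 2 mM Na3VO4 for 8 min. Receptor captured by anti-PDGFRβ, phosphotyrosine detected by HRP-PY20/TMB at 450 nm; IC50 by four-parameter fit.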

HUVEC = assay: bFGF HUVEC proliferation; format: cell-based, human; conditions: bFGF stimulated HUVEC
Mouse PK assay = format: in vivo, B6 female mice; conditions: po; for AUC / Cmax: female, B6, mouse, plasma, 50 mg/kg; for Cmax: p.o., read-out: Mouse Cmax, po ng-h/mL
Outline: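 Plasma levels were measured by HPLC with UV detection after acetonitrile precipitation, using extracted standards, in blood taken up to 4 h (0.5, 1, 2, 4 h) post-dose. Dosing: 50 mg/kg orally or intraperitoneally to two groups of four female B6 mice, vehicle PEG 400:acidified H2O 30:70 suspension.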

T1 sequence (P09619 33-1106): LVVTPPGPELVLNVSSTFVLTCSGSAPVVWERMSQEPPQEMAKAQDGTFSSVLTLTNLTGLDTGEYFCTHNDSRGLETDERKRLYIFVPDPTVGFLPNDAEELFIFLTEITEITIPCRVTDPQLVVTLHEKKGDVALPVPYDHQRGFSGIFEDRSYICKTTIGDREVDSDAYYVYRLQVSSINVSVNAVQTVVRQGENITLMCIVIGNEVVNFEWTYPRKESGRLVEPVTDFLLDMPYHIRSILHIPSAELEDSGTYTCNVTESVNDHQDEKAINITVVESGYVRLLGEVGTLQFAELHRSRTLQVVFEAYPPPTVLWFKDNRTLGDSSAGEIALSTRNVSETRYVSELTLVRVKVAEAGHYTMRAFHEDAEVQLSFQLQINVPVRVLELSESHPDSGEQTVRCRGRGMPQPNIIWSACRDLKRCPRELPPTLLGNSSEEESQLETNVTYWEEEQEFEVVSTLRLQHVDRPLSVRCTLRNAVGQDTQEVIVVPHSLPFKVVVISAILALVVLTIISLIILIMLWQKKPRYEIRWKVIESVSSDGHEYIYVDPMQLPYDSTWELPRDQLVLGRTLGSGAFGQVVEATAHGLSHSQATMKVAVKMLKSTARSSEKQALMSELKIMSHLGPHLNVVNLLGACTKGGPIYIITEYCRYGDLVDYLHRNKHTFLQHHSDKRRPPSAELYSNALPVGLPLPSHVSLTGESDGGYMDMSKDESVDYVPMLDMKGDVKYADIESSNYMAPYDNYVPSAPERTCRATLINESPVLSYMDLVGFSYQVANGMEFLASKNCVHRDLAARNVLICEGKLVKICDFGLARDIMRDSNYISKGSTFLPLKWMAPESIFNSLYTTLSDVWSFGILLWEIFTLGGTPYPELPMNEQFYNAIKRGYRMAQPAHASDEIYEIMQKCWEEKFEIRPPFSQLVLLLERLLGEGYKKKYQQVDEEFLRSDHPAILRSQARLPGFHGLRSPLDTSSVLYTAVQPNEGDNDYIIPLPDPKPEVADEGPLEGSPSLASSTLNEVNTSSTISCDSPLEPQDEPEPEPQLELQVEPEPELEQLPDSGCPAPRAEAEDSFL

IC50 (PDGFRβ)	AUC (Mouse PK assay) [ng·h/mL]	Cmax (Mouse PK assay) [ng/mL]	Mouse Cmin, po (Mouse PK assay) [ng/mL]	Structure (SMILES)	IC50 [1] [nM]	IC50 (HUVEC; Homo sapiens, HUVEC) [nM]	IC50 (HUVEC) [nM]
533 nM	219	100	6	C#CCNC(=O)n1c(C)cc2cc(Nc3ccnc4cc(C(=O)N5CC[C@@H](O)C5)sc34)ccc21 [Example 1o, 5-[2-(3R-Hydroxy-pyrrolidine-1-carbonyl)-thieno[3,2-b]pyridin-7-ylamino]-2-methyl-indole-1-carboxylic acid prop-2-ynylamide]	0.34	49.6	52
49 nM and 45 nM and 95 nM	719	504	5	CNC(=O)n1c(C)cc2cc(Nc3ccnc4cc(C(=O)N5CC[C@@H](OC)C5)sc34)ccc21 [Example 1l, 5-[2-(3R-Methoxy-pyrrolidine-1-carbonyl)-thieno[3,2-b]pyridin-7-ylamino]-2-methyl-indole-1-carboxylic acid methylamide]	0.3	6.1	–
599 nM and 126 nM	2880	2820	20	CNC(=O)n1c(C)cc2cc(Oc3ccnc4cc(C(=O)N5C[C@H](OC)C[C@H]5CO)sc34)ccc21 [Example 3o, 5-[2-(2-Hydroxymethyl-4-methoxy-pyrrolidine-1-carbonyl)-thieno[3,2-b]pyridin-7-yloxy]-2-methyl-indole-1-carboxylic acid methylamide]	0.24	246	–
> 1000 nM	43	28	0	Cc1cc2cc(Nc3ccnc4cc(C(=O)N5CCC[C@H]5CO)sc34)ccc2n1C(=O)NC1CC1 [Example 2e, 5-(2-[(S)-2-(hydroxymethyl)pyrrolidine-1-carbonyl]thieno[3,2-b]pyridin-7-ylamino)-2-methylindole-1-carboxylic acid cyclopropylamide]	0.5	27.8	31.6
16.5 nM	703	575	3	CNC(=O)n1c(C)cc2cc(Oc3ccnc4cc(C(=O)N5CCC[C@H]5COC)sc34)ccc21 [Example 4a, 5-(2-[(S)-2-(methoxymethyl)pyrrolidine-1-carbonyl]thieno[3,2-b]pyridin-7-yloxy)-2-methylindole-1-carboxylic acid methylamide]	0.2	33	34
22 nM and 24 nM and 23 nM	3640	2110	108	COC[C@@H]1CCCN1C(=O)c1cc2nccc(Oc3ccc4c(c3)cc(C)n4C(=O)NC3CC3)c2s1 [Example 4b, 5-(2-[(S)-2-(methoxymethyl)pyrrolidine-1-carbonyl]thieno[3,2-b]pyridin-7-yloxy)-2-methylindole-1-carboxylic acid cyclopropylamide]	–	11.7	–
18.2 nM	2560	1820	47	CNC(=O)n1c(C)cc2c(F)c(Oc3ccnc4cc(C(=O)N5CCC[C@H]5CO)sc34)ccc21 [Example 5n, 4-Fluoro-5-[(2-{[(2S)-2-(hydroxymethyl)pyrrolidin-1-yl]carbonyl}thieno[3,2-b]pyridin-7-yl)oxy]-N,2-dimethyl-1H-indole-1-carboxamide]	–	93	–
27 nM and 33 nM	9530	4540	–	CNC(=O)n1c(C)cc2cc(Oc3ccnc4cc(C(=O)N5CC[C@H](O)C5)sc34)ccc21 [Example 9g, 5-[2-(3S-Hydroxy-pyrrolidine-1-carbonyl)-thieno[3,2-b]pyridin-7-yloxy]-2-methyl-indole-1-carboxylic acid methylamide]	–	45	40
